Measurements reported in the supplement of paper PMC11208160.

Assay: recombinant UMI read abundance after kanamycin selection (control-corrected) (log10(CPM+1)); higher = more efficient recombination; extreme values may be limits of the assay; sequences stand for … in AGTGCAGAGAAAATCGGCCAGTTTTCTCTGCCTGCAGTCCGCATGCCGTGGGACCCCTTGGGTTCTAACCTGTTGCCTAGATTTATGCAGCGGACTGCCTTTCTCCCAAAGTGATAAACCGG…AGGTTGGTTTCACT; site = the 11-nt donor
Summary of the method: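 Pooled Escherichia coli screen of donor and donor-binding-loop pairs for the IS621 bridge recombinase. Each pair sits with a 12-nt UMI on a plasmid carrying a promoterless kanamycin gene. The library was co-electroporated with a target plasmid encoding a fixed target and T7-inducible recombinase, then plated with IPTG (0.07 mM) plus kanamycin, or unselected, each in two replicates. Recombinant UMIs were PCR-amplified across the donor–target junction and sequenced. Counts became CPM, averaged over replicates, scaled by control-derived factors and reported as log10(CPM+1).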
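Note: IS621 bridge recombinase in Escherichia coli cells against a fixed T5 target plasmid.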

Sequence	recombinant UMI read abundance (log10)
GTTGAGTCATGGACCGGTTTTCCCGGTAATCCGTATTTGAC (site GTTGAGTCTGT)	2.71
GTTGGCGCATGGACCGGTTTTCCCGGTAATCCGTATTTGTG (site GTTGGCGCTCA)	0.74
GTTGGGCCATGGACCGGTTTTCCCGGTAATCCGTATTTGAT (site GTTGGGCCTAT)	0.00591
GTTGTTCCATGGACCGGTTTTCCCGGTAATCCGTATTTGGT (site ATTGTTCCTAC)	0.0121
GTTGTTCCATGGACCGGTTTTCCCGGTAATCCGTATTTGGT (site CTTGTTCCTAC)	0.00343
GTTGTTCCATGGACCGGTTTTCCCGGTAATCCGTATTTGGT (site GATGTTCCTAC)	0.0185
GTTGTTCCATGGACCGGTTTTCCCGGTAATCCGTATTTGGT (site GCTGTTCCTAC)	0.00506
GTTGTTCCATGGACCGGTTTTCCCGGTAATCCGTATTTGGT (site GGTGTTCCTAC)	0.0704
GTTGTTCCATGGACCGGTTTTCCCGGTAATCCGTATTTGGT (site GTAGTTCCTAC)	0.00238
GTTGTTCCATGGACCGGTTTTCCCGGTAATCCGTATTTGGT (site GTCGTTCCTAC)	0.005
GTTGTTCCATGGACCGGTTTTCCCGGTAATCCGTATTTGGT (site GTGGTTCCTAC)	0.508
GTTGTTCCATGGACCGGTTTTCCCGGTAATCCGTATTTGGT (site GTTATTCCTAC)	0.00427
GTTGTTCCATGGACCGGTTTTCCCGGTAATCCGTATTTGGT (site GTTCTTCCTAC)	0.0166
GTTGTTCCATGGACCGGTTTTCCCGGTAATCCGTATTTGGT (site GTTGATCCTAC)	0.00419
GTTGTTCCATGGACCGGTTTTCCCGGTAATCCGTATTTGGT (site GTTGCTCCTAC)	0.00968
GTTGTTCCATGGACCGGTTTTCCCGGTAATCCGTATTTGGT (site GTTGGTCCTAC)	0.00325

Sequence	recombinant UMI read abundance (log10)
GTTGTTCCATGGACCGGTTTTCCCGGTAATCCGTATTTGGT (site GTTGTACCTAC)	0.00624
GTTGTTCCATGGACCGGTTTTCCCGGTAATCCGTATTTGGT (site GTTGTCCCTAC)	0.00355
GTTGTTCCATGGACCGGTTTTCCCGGTAATCCGTATTTGGT (site GTTGTGCCTAC)	0.03
GTTGTTCCATGGACCGGTTTTCCCGGTAATCCGTATTTGGT (site GTTGTTACTAC)	0.00857
GTTGTTCCATGGACCGGTTTTCCCGGTAATCCGTATTTGGT (site GTTGTTCCTAA)	0.00913
GTTGTTCCATGGACCGGTTTTCCCGGTAATCCGTATTTGGT (site GTTGTTCCTAC)	0.00461
GTTGTTCCATGGACCGGTTTTCCCGGTAATCCGTATTTGGT (site GTTGTTCCTAG)	0
GTTGTTCCATGGACCGGTTTTCCCGGTAATCCGTATTTGGT (site GTTGTTCCTAT)	0.00563
GTTGTTCCATGGACCGGTTTTCCCGGTAATCCGTATTTGGT (site GTTGTTCCTCC)	0.0221
GTTGTTCCATGGACCGGTTTTCCCGGTAATCCGTATTTGGT (site GTTGTTCCTGC)	0.388
GTTGTTCCATGGACCGGTTTTCCCGGTAATCCGTATTTGGT (site GTTGTTCCTTC)	0.00361
GTTGTTCCATGGACCGGTTTTCCCGGTAATCCGTATTTGGT (site GTTGTTGCTAC)	0.0845
GTTGTTCCATGGACCGGTTTTCCCGGTAATCCGTATTTGGT (site GTTGTTTCTAC)	0
GTTGTTCCATGGACCGGTTTTCCCGGTAATCCGTATTTGGT (site GTTTTTCCTAC)	0
GTTGTTCCATGGACCGGTTTTCCCGGTAATCCGTATTTGGT (site TTTGTTCCTAC)	0.0162
GTTGTTCCATGGACCGGTTTTCCCGGTAATCCGTATTTGTT (site GTTGTTCCTAA)	0.42
